Measurements reported in patent EP4818168A1, “FUSED RING COMPOUND, PHARMACEUTICAL COMPOSITION THEREOF AND USE THEREOF” (priority 2023, dated 2025).
Read-outs that look alike come from different tables or passages of the source.

Assays:
H82 cells = assay: cells; assay type: cell-based
Procedure: CellTiter-Glo (CTG) is a rapid cell viability test method based on ATP detection. […] Adenosine triphosphate (ATP) participates in various enzymatic reactions in organisms and is an indicator of living cell metabolism. Its content directly reflects the number of living cells and cell status. During the experiment, equal volume of CTG reagent is added to the cultured cells to measure the luminescence value. The chemiluminescent signal value is proportional to the amount of ATP, thus reflecting the number of viable cells. Therefore, cell viability can be obtained by detecting the ATP content. Compounds that affect cell viability will inhibit cell viability in a concentration-dependent manner, allowing a curve to be fitted to obtain the IC50 value.
The experimental procedure is as follows: • 11. Place the cell suspension in a 15 mL centrifuge tube, centrifuge at 1000 rpm for 5 min at room temperature, discard the supernatant, and collect the cell pellet. • 12. Resuspend the cell pellet with preheated complete cell culture medium (RPMI1640+10%FBS+1%PS), and use a Countess® automated cell counter to detect cell viability and density. […] Transfer the compound solution to a 96-well plate seeded with cells (final concentration of DMSO 0.1%), and place in a cell incubator at 37°C, 5% CO2 for 6 days. • 15. […] Protect from light during the whole process. Perform optical signal readings using a SpectraMax i3x reader. • 16. Data analysis: Remaining activity (%) = 100% * (1 - ((LumDMSO - Lummedium) - Lumsample) / (LumDMSO - LumPBS/medium)). Use GraphPad Prism 9.0 software to draw an S-shaped dose-survival rate curve and calculate the IC50 value using a nonlinear regression model.

AURKA = target: T1, AURKA (Homo sapiens, UniProt O14965); assay type: cell-based; conditions: Jurkat cells, 24 h, Table 2
T1 construct: endogenous in cells; host or cells: Jurkat cells
T1 sequence (O14965 1-403): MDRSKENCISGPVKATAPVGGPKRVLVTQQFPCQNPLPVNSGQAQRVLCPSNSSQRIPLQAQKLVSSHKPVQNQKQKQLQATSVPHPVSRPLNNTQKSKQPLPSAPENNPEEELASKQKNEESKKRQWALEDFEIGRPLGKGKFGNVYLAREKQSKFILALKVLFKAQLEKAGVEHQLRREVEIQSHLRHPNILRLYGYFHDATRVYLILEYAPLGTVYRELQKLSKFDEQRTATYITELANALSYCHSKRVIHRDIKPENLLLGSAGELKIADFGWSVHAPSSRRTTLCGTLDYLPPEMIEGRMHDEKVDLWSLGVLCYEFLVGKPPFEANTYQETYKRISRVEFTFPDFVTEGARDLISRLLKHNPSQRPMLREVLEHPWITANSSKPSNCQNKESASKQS
Source text: WB is a classical biochemical experimental method used to detect the abundance of a target protein in a sample of cells or biological tissue. It relies on specific antigen-antibody binding to detect protein signals from the sample processed by gel electrophoresis: the protein specifically binds to a primary antibody at an epitope; the primary antibody is then conjugated with a secondary antibody to amplify the signal cascade; the signal is read out by chemiluminescent or fluorescent detection. The intracellular protein content is ultimately characterized by the intensity of the optical signals. […] The DC50 value can be calculated by curve fitting of the protein WB exposure signals.
The experimental procedure is as follows: • 1. Seed Jurkat cells into a 12-well plate at 1×10^6 cells/500 µL/well. • 2. Mix the culture medium with the compound to a concentration that is twice the desired final concentration. […] Transfer the cell suspension to a centrifuge tube. Rinse the 12-well plate with PBS and then transfer the PBS from the plate to the same centrifuge tube. Centrifuge at 3000 rpm for 5 min at room temperature. Aspirate the supernatant using a vacuum pump. […] Lyse on ice for 20 min. • 4. Centrifuge the lysed sample at 13000 rpm for 20 min at 4°C. Mix the supernatant with 5× protein loading buffer. Boil at 100°C for 5 min and then cool. Store the denatured protein sample at -20°C. • 5. […] Run electrophoresis at 80 V for 20 min, and then at 120 V constant voltage for 60 min. • 6. Transfer the protein onto a nitrocellulose membrane in an ice bath at 250 mA constant current for 90 min. • 7. […] Incubate with a primary antibody overnight at 4°C. • 9. […] Incubate with a secondary antibody for 1-2 h at room temperature. • 10. […] Expose and image the membrane using a LICOR Odyssey DLx imager.

[1] = Homo sapiens, NCI-H82, read-out: IC50 in H82 Cells
[2] = Homo sapiens, NCI-H82, H82 cells, 4000 cells/well, CellTiter-Glo, read-out: IC50 in H82 Cells

| Structure (SMILES) | IC50 (H82 cells; [1]) [µM] | Percentage of AURKA Degradation Induced by 100 nM Compound in Jurkat Cells (AURKA) | Percentage of AURKA Degradation Induced by 1 µM Compound in Jurkat Cells (AURKA) | IC50 (H82 cells; read-out: IC50 in H82 Cells, H82 cells, 4000 cells/well, CellTiter-Glo) [µM] | IC50 (H82 cells; [2]) [µM] |
| --- | --- | --- | --- | --- | --- |
| O=C1CCN(c2ccc(N3CCC4(CC3)CC(N3CCN(c5ccc(Nc6ncc7c(n6)-c6ccc(Cl)cc6C(c6c(F)cccc6F)=NC7)cc5)CC3)CO4)nc2)C(=O)N1 (racemic) [Compound A340] | < 1 | +++ (Degradation > 70%) | +++ (Degradation > 70%) | – | – |
| O=C1CCN(c2ccc(N3CCOC4(CC(N5CCN(C67CC(Nc8ncc9c(n8)-c8ccc(Cl)cc8C(c8c(F)cccc8F)=NC9)(C6)C7)C(=O)C5)C4)C3)nc2)C(=O)N1 (single isomer, unassigned) [Compound A348] | < 1 | +++ (Degradation > 70%) | ++ (30% < Degradation ≤ 70%) | – | – |
| O=C1CCN(c2ccc(N3CCOC4(CC(N5CCN(C67CC(Nc8ncc9c(n8)-c8ccc(Cl)cc8C(c8c(F)cccc8F)=NC9)(C6)C7)C(=O)C5)C4)C3)nc2)C(=O)N1 (single isomer, unassigned) [Compound A349] | – | ++ (30% < Degradation ≤ 70%) | ++ (30% < Degradation ≤ 70%) | < 1 | – |
| O=C1CCN(c2ccc(N3CCC4(CC3)CC(NC(=O)c3ccc(Nc5ncc6c(n5)-c5ccc(Cl)cc5C(c5c(F)cccc5F)=NC6)cc3)C4)cc2F)C(=O)N1 [Compound A96] | – | ++ (30% < Degradation ≤ 70%) | +++ (Degradation > 70%) | – | < 1 |
| O=C1CCN(c2ccc(N3CCN(CCC#Cc4cccc(Nc5ncc6c(n5)-c5ccc(Cl)cc5C(c5c(F)cccc5F)=NC6)c4)CC3)cc2)C(=O)N1 [Compound A97] | – | + (Degradation ≤ 30%) | + (Degradation ≤ 30%) | – | < 1 |
| O=C1CCN(c2cccc(N3CCN(CC#Cc4cccc(Nc5ncc6c(n5)-c5ccc(Cl)cc5C(c5c(F)cccc5F)=NC6)c4)CC3)c2)C(=O)N1 [Compound A98] | < 1 | – | – | – | – |
| O=C1CCN(c2ccc(N3CCN(CC#Cc4cccc(Nc5ncc6c(n5)-c5ccc(Cl)cc5C(c5c(F)cccc5F)=NC6)c4)CC3)cc2)C(=O)N1 [Compound A99] | – | ++ (30% < Degradation ≤ 70%) | + (Degradation ≤ 30%) | – | < 1 |
| O=C1CCN(c2cccc(N3CCN(CCC#Cc4cccc(Nc5ncc6c(n5)-c5ccc(Cl)cc5C(c5c(F)cccc5F)=NC6)c4)CC3)c2)C(=O)N1 [Compound A100] | – | ++ (30% < Degradation ≤ 70%) | ++ (30% < Degradation ≤ 70%) | – | < 1 |
| O=C1CCN(c2cccc(C#CCN3CCn4c(cnc4-c4ccc(Nc5ncc6c(n5)-c5ccc(Cl)cc5C(c5c(F)cccc5F)=NC6)cc4)C3)c2)C(=O)N1 [Compound A145] | – | – | – | – | < 1 |
| O=C1CCN(c2cncc(N3CCN(C4CN(c5cccc(Nc6ncc7c(n6)-c6ccc(Cl)cc6C(c6c(F)cccc6F)=NC7)c5)C4)CC3)c2C(F)F)C(=O)N1 [Compound A193] | – | + (Degradation ≤ 30%) | + (Degradation ≤ 30%) | – | – |
| O=C1CCN(c2cnc(N3CC(N4CCN(c5ccc(Nc6ncc7c(n6)-c6ccc(Cl)cc6C(c6c(F)cccc6F)=NC7)cc5)C(=O)C4)C3)s2)C(=O)N1 [Compound A201] | – | ++ (30% < Degradation ≤ 70%) | ++ (30% < Degradation ≤ 70%) | – | – |
| O=C1CCN(c2ccc(N3CC4(C3)CN(C3CN(c5ccc(Nc6ncc7c(n6)-c6ccc(Cl)cc6C(c6c(F)cccc6F)=NC7)cc5)C3)C4)nc2)C(=O)N1 [Compound A204] | – | +++ (Degradation > 70%) | ++ (30% < Degradation ≤ 70%) | – | – |
| O=C1CCN(c2cncc(N3CCC(N4CC5(CN(c6cccc(Nc7ncc8c(n7)-c7ccc(Cl)cc7C(c7c(F)cccc7F)=NC8)c6)C5)C4)CC3)c2)C(=O)N1 [Compound A241] | – | +++ (Degradation > 70%) | ++ (30% < Degradation ≤ 70%) | – | – |
| O=C1CCN(c2ccc(N3CCN(CC4CN([C@H]5CC[C@H](Nc6ncc7c(n6)-c6ccc(Cl)cc6C(c6c(F)cccc6F)=NC7)CC5)C4)CC3)nc2)C(=O)N1 [Compound A246] | – | + (Degradation ≤ 30%) | ++ (30% < Degradation ≤ 70%) | – | – |
| O=C1CCN(c2ccc(N3CCN(CC4CN([C@H]5CC[C@@H](Nc6ncc7c(n6)-c6ccc(Cl)cc6C(c6c(F)cccc6F)=NC7)CC5)C4)CC3)nc2)C(=O)N1 [Compound A247] | – | + (Degradation ≤ 30%) | + (Degradation ≤ 30%) | – | – |
| CN(C)CCOc1ccc2c(c1)C(c1c(F)cccc1F)=NCc1cnc(Nc3ccc(N4CC(CN5CCN(c6ccc(N7CCC(=O)NC7=O)cn6)CC5)C4)cc3)nc1-2 [Compound A260] | – | ++ (30% < Degradation ≤ 70%) | ++ (30% < Degradation ≤ 70%) | – | – |
| CP(C)(=O)c1ccc2c(c1)C(c1c(F)cccc1F)=NCc1cnc(Nc3ccc(N4CCN(C5CCN(c6ccc(N7CCC(=O)NC7=O)cn6)CC5)CC4)cc3)nc1-2 [Compound A266] | – | ++ (30% < Degradation ≤ 70%) | ++ (30% < Degradation ≤ 70%) | – | – |
| O=C1CCN(c2ccc(N3CCC(F)(CN4CCN(C56CC(Nc7ncc8c(n7)-c7ccc(Cl)cc7C(c7nccs7)=NC8)(C5)C6)C(=O)C4)CC3)nc2)C(=O)N1 [Compound A278] | – | ++ (30% < Degradation ≤ 70%) | +++ (Degradation > 70%) | – | – |
| COc1cc(Nc2ncc3c(n2)-c2ccc(Cl)cc2C(c2c(F)cccc2F)=NC3)ccc1N1CC(F)(CN2CCN(c3ccc(N4CCC(=O)NC4=O)cn3)CC2)C1 [Compound A289] | – | +++ (Degradation > 70%) | +++ (Degradation > 70%) | – | – |
| O=C1CCN(c2ccc(N3CCC(N4CCN(c5ccc(Nc6ncc7c(n6)-c6ccc(Cl)cc6C(c6c(F)cccc6F)=NC7)cc5)CC4=O)CC3)nc2)C(=O)N1 [Compound A295] | – | +++ (Degradation > 70%) | ++ (30% < Degradation ≤ 70%) | – | – |
| O=C1CCN(c2ccc(N3CCC(N4CCN(c5ccc(Nc6ncc7c(n6)-c6ccc(Cl)cc6C(C6CC6)=NC7)cc5)C(=O)C4)CC3)nc2)C(=O)N1 [Compound A328] | – | ++ (30% < Degradation ≤ 70%) | ++ (30% < Degradation ≤ 70%) | – | – |
